This is an account of results in patent US20250230193A1, “CYCLIC COMPOUND HAVING SELECTIVE KRAS INHIBITORY EFFECT ON HRAS AND NRAS” (CHUGAI SEIYAKU KABUSHIKI KAISHA, priority 2022, published 2025).

For experiment [1], the target named is GDP-bound HRAS wild-type protein (Homo sapiens, UniProt P01112). Nature of the experiment: Binding to HRAS by surface plasmon resonance (SPR), Single Cycle Kinetics. The settings on record: for HRAS/KRAS (ratio of KD value with respect to GDP-bound HRAS wild-type protein to KD value with respect to KRAS): class symbols. For orientation: Surface plasmon resonance follows binding to a sensor surface in real time, without labels.
GDP-bound HRAS wild-type protein, sequence (P01112 whole entry): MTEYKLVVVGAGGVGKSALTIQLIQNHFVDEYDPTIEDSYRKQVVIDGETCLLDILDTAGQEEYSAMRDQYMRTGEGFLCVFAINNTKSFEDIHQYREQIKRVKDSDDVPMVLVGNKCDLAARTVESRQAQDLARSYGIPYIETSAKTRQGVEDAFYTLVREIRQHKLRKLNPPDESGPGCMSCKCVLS

Experiment [2] has as its target GDP-bound NRAS wild-type protein (Homo sapiens, UniProt P01111). Nature of the experiment: Binding to NRAS by surface plasmon resonance (SPR), Single Cycle Kinetics. The settings on record: for NRAS/KRAS (ratio of KD value with respect to GDP-bound NRAS wild-type protein to KD value with respect to KRAS): class symbols.
[3] abbreviates: GDP-bound HRAS wild-type vs GDP-bound KRAS wild-type, SPR.
The mark [4] stands for this setting: GDP-bound NRAS wild-type vs GDP-bound KRAS wild-type, SPR.

Where a SMILES comes first, the peptide text is derived from it. Bridges are numbered along the chain shown (N, C = ends). [ ]: non-standard residue; d: D form. The star is where a group is joined. hPhe(3-Cl-4-CF3) = N[C@@H](CCc1ccc(C(F)(F)F)c(Cl)c1)C(=O)O; NPrPhe(4-CF3) = CCCN[C@@H](Cc1ccc(C(F)(F)F)cc1)C(=O)O; NMeGly(cPent) = CN[C@H](C(=O)O)C1CCCC1; NEtLeu = CCN[C@@H](CC(C)C)C(=O)O; NMeD = CN[C@@H](CC(=O)O)C(=O)O; hPip = O=C(O)[C@@H]1CCCCCN1; Morpholide = C1CN(*)CCO1; Ac5c = NC1(C(=O)O)CCCC1; Aze = O=C(O)[C@@H]1CCN1; Sar = CNCC(=O)O

GDP-bound NRAS wild-type protein, sequence (P01111 whole entry): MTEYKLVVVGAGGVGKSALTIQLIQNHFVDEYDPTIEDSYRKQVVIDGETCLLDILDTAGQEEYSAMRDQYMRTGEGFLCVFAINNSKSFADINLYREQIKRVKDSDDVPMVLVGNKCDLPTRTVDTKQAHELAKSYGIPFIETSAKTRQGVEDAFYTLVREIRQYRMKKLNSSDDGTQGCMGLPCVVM

For the compound `CCCN1C(=O)CN(C)C(=O)CNC(=O)[C@H]([C@@H](C)CC)NC(=O)[C@H](CC(C)C)N(CC)C(=O)C[C@@H](C(=O)N2CCOCC2)N(C)C(=O)[C@H](C2CCCC2)N(C)C(=O)C2(CCCC2)NC(=O)[C@@H]2CCCN2C(=O)[C@H](CCc2ccc(C(F)(F)F)c(Cl)c2)NC(=O)CN(C)C(=O)[C@@H]1Cc1ccc(C(F)(F)F)cc1` [PP1967] ([NEtLeu]IG[Sar][NPrPhe(4-CF3)][Sar][hPhe(3-Cl-4-CF3)]P[Ac5c][NMeGly(cPent)][NMeD]-Morpholide; lactam N-11), the “HRAS/KRAS (ratio of KD value for HRAS to KD value for KRAS)” value in experiment [1] (setting [3]) is “B (a compound having 3 or more and less than 10 is denoted as B)”. In addition, the “NRAS/KRAS (ratio of KD value for NRAS to KD value for KRAS)” value in experiment [2] (setting [4]) is “B (a compound having 3 or more and less than 10 is denoted as B)”.
As to `CCC[C@H]1C(=O)N[C@@H]([C@@H](C)CC)C(=O)N(C2CC2)CC(=O)N(C)[C@H]2C/C=C\CCN(C2=O)[C@@H](Cc2ccc(C(F)(F)F)cc2)C(=O)N(C)CC(=O)N[C@@H](CCc2cc(F)c(C(F)(F)F)c(F)c2)C(=O)N2C[C@H](OCC)C[C@H]2C(=O)NC2(CC(C)(C)C2)C(=O)N(C)[C@@H](CC2CCC2)C(=O)N(C)[C@H](C(=O)N(C)C)CC(=O)N1C` [PP2768], in experiment [1] (KD ratio HRAS/KRAS), the “HRAS/KRAS (ratio of KD value with respect to GDP-bound HRAS wild-type protein to KD value with respect to KRAS)” value was “A (a compound having 10 or more and less than 20 is denoted as A)”. Moreover, in experiment [2] (KD ratio NRAS/KRAS), the “NRAS/KRAS (ratio of KD value with respect to GDP-bound NRAS wild-type protein to KD value with respect to KRAS)” value is “A (a compound having 10 or more and less than 20 is denoted as A)”.
On to `CCCOC[C@H]1C(=O)N[C@@H]([C@@H](C)CC)C(=O)N(C)CC(=O)N(C)[C@H]2C/C=C\CCN(C2=O)[C@@H](Cc2ccc(C(F)(F)F)cc2)C(=O)N(C)CC(=O)N[C@@H](CCc2ccc(C(F)(F)F)c(Cl)c2)C(=O)N2C[C@H](OCC)C[C@H]2C(=O)NC2(CC(C)(C)C2)C(=O)N(C)[C@@H](C2CCCC2)C(=O)N(C)[C@H](C(=O)N(C)C)CC(=O)N1C` [PP1754], for which the “HRAS/KRAS (ratio of KD value for HRAS to KD value for KRAS)” value in experiment [1] (setting [3]) was “A (a compound having 10 or more and less than 20 is denoted as A)”. In experiment [2] (setting [4]), the “NRAS/KRAS (ratio of KD value for NRAS to KD value for KRAS)” value is “A (a compound having 10 or more and less than 20 is denoted as A)”.
As to `CCC[C@H]1C(=O)N[C@@H]([C@@H](C)CC)C(=O)N(C)CC(=O)N(C)[C@H]2C/C=C\CCN(C2=O)[C@@H](Cc2ccc(C)cc2)C(=O)N(C)CC(=O)N[C@@H](CCc2ccc3c(C)cn(C)c3c2)C(=O)N2C[C@H](OCC)C[C@H]2C(=O)NC2(CC(C)(C)C2)C(=O)N(C)[C@@H](C(CC)CC)C(=O)N(C)[C@H](C(=O)N(C)C)CC(=O)N1C` [PP2910], the “HRAS/KRAS (ratio of KD value with respect to GDP-bound HRAS wild-type protein to KD value with respect to KRAS)” value in experiment [1] (KD ratio HRAS/KRAS) is “A (a compound having 10 or more and less than 20 is denoted as A)”. For the same compound, the “NRAS/KRAS (ratio of KD value with respect to GDP-bound NRAS wild-type protein to KD value with respect to KRAS)” value in experiment [2] (KD ratio NRAS/KRAS) is “AA (a compound having 20 or more is denoted as AA)”.
As to `CCCN1C(=O)CN(C)C(=O)[C@@H]2CCN2C(=O)[C@H]([C@@H](C)CC)NC(=O)[C@@H]2CCCCCN2C(=O)C[C@@H](C(=O)N2CCOCC2)N(C)C(=O)[C@H](C2CCCC2)N(C)C(=O)C2(CCCC2)NC(=O)[C@@H]2CCCN2C(=O)[C@H](CCc2ccc(C(F)(F)F)c(Cl)c2)NC(=O)CN(C)C(=O)[C@@H]1Cc1ccc(C(F)(F)F)cc1` [PP0302] ([hPip]I[Aze][Sar][NPrPhe(4-CF3)][Sar][hPhe(3-Cl-4-CF3)]P[Ac5c][NMeGly(cPent)][NMeD]-Morpholide; lactam N-11), the “HRAS/KRAS (ratio of KD for GDP-bound HRAS wild-type to KD for KRAS)” value in experiment [1] (KD ratio HRAS/KRAS, SPR) is “C (A compound having a KD ratio of 0.1 or more and less than 3 is denoted as C)”. Further, in experiment [2] (KD ratio NRAS/KRAS, SPR), the “NRAS/KRAS (ratio of KD for GDP-bound NRAS wild-type to KD for KRAS)” value was “B (a compound having 3 or more and less than 10 is denoted as B)”.
`CCC[C@H]1C(=O)N[C@@H]([C@@H](C)CC)C(=O)N(C)CC(=O)N(C)[C@H]2C/C=C\CCN(C2=O)[C@@H](Cc2ccc(C)cc2)C(=O)N(C)CC(=O)N[C@@H](CCc2ccc(Cl)c(Cl)c2)C(=O)N2C[C@H](OC3CCC3)C[C@H]2C(=O)NC2(CC(C)(C)C2)C(=O)N(C)[C@@H](C(CC)CC)C(=O)N(C)[C@H](C(=O)N(C)C)CC(=O)N1C` [PP2644]: the “HRAS/KRAS (ratio of KD value with respect to GDP-bound HRAS wild-type protein to KD value with respect to KRAS)” value in experiment [1] (KD ratio HRAS/KRAS) was “A (a compound having 10 or more and less than 20 is denoted as A)”. Moreover, in experiment [2] (KD ratio NRAS/KRAS), the “NRAS/KRAS (ratio of KD value with respect to GDP-bound NRAS wild-type protein to KD value with respect to KRAS)” value is on record as “AA (a compound having 20 or more is denoted as AA)”.
In the case of `CCO[C@@H]1C[C@H]2C(=O)NC3(CC(C)(C)C3)C(=O)N(C)[C@@H](C(CC)CC)C(=O)N(C)[C@H](C(=O)N(C)C)CC(=O)N(C)[C@@H](COC)C(=O)N[C@@H]([C@@H](C)CC)C(=O)N(C)CC(=O)N(C)[C@H]3C/C=C\CCN(C3=O)[C@@H](Cc3ccc(C(F)(F)F)cc3)C(=O)N(C)CC(=O)N[C@@H](CCc3cc(F)c(C(F)(F)F)c(F)c3)C(=O)N2C1` [PP2121], the “HRAS/KRAS (ratio of KD value with respect to HRAS to KD value with respect to KRAS)” value in experiment [1] (SPR, GDP-bound HRAS wild-type vs GDP-bound KRAS wild-type) was “A (a compound having 10 or more and less than 20 is denoted as A)”. For the same compound, the “NRAS/KRAS (ratio of KD value with respect to NRAS to KD value with respect to KRAS)” value in experiment [2] (SPR, GDP-bound NRAS wild-type vs GDP-bound KRAS wild-type) is on record as “AA (a compound having 20 or more is denoted as AA)”.
